Laboratory results reported in patent US10183947B2, “Pyrazole derivatives useful as 5-lipoxygenase activating protein (FLAP) inhibitors” (ASTRAZENECA AB, priority 2015, dated 2019).
Where two headings read alike, the source gives them in different places.

How the values were obtained:
[1] = biological target: FLAP (human ALOX5AP expressed in COS-7 cell membranes) (Homo sapiens (Human), UniProt P20292); assay: FLAP Binding Assay (Test A), competition binding with 3H-MK591 as tracer; conditions: competition with 3H-MK591 (2 nM), membranes from COS-7 cells expressing human ALOX5AP, 60 min at rt
Procedure: FLAP Binding Assay (Test A) Compounds were tested in a competition binding assay using ^3H-MK591 as tracer. […] Med. Chem. […] A 100,000×g pellet from COS-7 cells stably transfected with a plasmid expressing human ALOX5AP was the source of FLAP. […] Following filtration, filter plates were dried 12 h at RT (or 50° C. for 1 hour). 50 μL scintillant was then added, the filterplates were sealed and radioactivity was measured in a microbeta counter. Specific binding was defined as total binding minus non-specific binding. Total binding was defined as ^3H-MK591 bound to membranes in the absence of competitor, non-specific binding was defined as ^3H-MK591 in the presence of 0.1 mM MK-591. IC50 values were determined by plotting % inhibition versus log compound concentration and using a one site dose response model.

[2] = tested on: LTB4 production in fresh human whole blood; assay: FLAP Whole Blood Assay (Test B), inhibition of LTB4 production; assay type: cell-based; conditions: then calcium ionophore A23187, LTB4 by EIA
Procedure: FLAP Whole Blood Assay (Test B)
Compounds were tested for the inhibition of LTB4 production in fresh human whole blood obtained by venapuncture using heparin to prevent clotting. 1.5 μL compounds or DMSO carrier were dispensed into the wells of a 96-well deep-well plate in 3-fold dilution series. 500 μL hepamised whole blood was then added followed by incubation at 37° C. for 30 min (method A) or 4 h (method B). 100 μL blood was subsequently transferred in triplicate to pre-dispensed 0.5 μL 2 mM calcium ionophore (calcimycin; A23187) in a second 96-well plate. Following incubation at 37° C. for 20 min, the assays were stopped by adding 10 μL of stop solution (100 mM EGTA, pH 7.4) and the plate was transferred to ice. The plate was centrifuged at 3000 rpm at 4° C. for 10 min and […] was transferred to a fresh 96 well plate containing 90 μL pre-dispensed EIA assay buffer (0.1 M phosphate buffer+0.1% BSA). LTB4 was then measured using reagents from a commercial EIA (Cayman Chemicals). LTB4 production was defined as the LTB4 level in the presence of a given concentration of test compound minus the LTB4 level in the presence of 50 nM 5-[[4-[(2S,4R)-4-hydroxy-2-methyl-tetrahydropyran-4-yl]-2-thienyl]sulfanyl]-1-methyl-indolin-2-one. (Preparation of 5-[[4-[(2S,4R)-4-hydroxy-2-methyl-tetrahydropyran-4-yl]-2-thienyl]sulfanyl]-1-methyl-indolin-2-one was described in Org. Process Res. Dev., 2005, 9, 555-569 or EP623614 B1). Inhibition of LTB4 production was defined as the LTB4 level in the presence of a given concentration of test compound expressed as a % of the LTB4 level in the presence of DMSO. IC50 values were determined by plotting % inhibition versus log compound concentration and using a one site dose response model.

[3] = 0.5 h, method A: compound incubated with human whole blood at 37° C. for 30 min, read-out: IC50 nM (method A)
[4] = method B: compound incubated with human whole blood at 37° C. for 4 h, read-out: IC50 nM (method B)

FLAP (human ALOX5AP expressed in COS-7 cell membranes), sequence (P20292 whole entry): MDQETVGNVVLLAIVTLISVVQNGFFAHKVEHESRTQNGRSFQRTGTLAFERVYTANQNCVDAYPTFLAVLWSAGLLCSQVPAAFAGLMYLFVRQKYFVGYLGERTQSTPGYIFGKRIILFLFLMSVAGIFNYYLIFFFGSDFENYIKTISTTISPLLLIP

Molecule `COc1c(NC(=O)C2CCCCC2C(=O)c2ccc(-c3cc[nH]n3)cc2)cnn1C` (racemic) [Example 14, (1R,2R and 1S,2S)—N-(5-Methoxy-1-methyl-1H-pyrazol-4-yl)-2-[4-(1H-pyrazol-3-yl)benzoyl]cyclohexanecarboxamide] has an IC50 [1] of 400 nM and an IC50 [2, 3] of 654 nM.

For `Cn1ncc(NC(=O)C2CCCCC2C(=O)c2ccc(-c3ccn[nH]3)cc2Cl)c1C(N)=O` (racemic) [Example 31, 4-[({(1R,2R and 1S,2S)-2-[2-Chloro-4-(1H-pyrazol-5-yl)benzoyl]-cyclohexyl}carbonyl)amino]-1-methyl-1H-pyrazole-5-carboxamide], the IC50 [1] was 190 nM and the IC50 [2, 4] was 390 nM.

`Cc1cc(-c2ccc(C(=O)C3CCCCC3C(=O)Nc3cnn(C)c3C(N)=O)c(Cl)c2)[nH]n1` (racemic) [Example 32, 4-[({(1R,2R and 1S,2S)-2-[2-Chloro-4-(3-methyl-1H-pyrazol-5-yl)benzoyl]cyclohexyl}carbonyl)amino]-1-methyl-1H-pyrazole-5-carboxamide] gave an IC50 [1] of 170 nM and an IC50 [2, 4] of 915 nM.

Molecule `CCn1cc(NC(=O)C2CCCCC2C(=O)c2ccc(-c3ccn[nH]3)cc2)c(C(N)=O)n1` (racemic) [Example 42, 1-Ethyl-4-[({(1R,2R and 1S,2S)-2-[4-(1H-pyrazol-5-yl)benzoyl]-cyclohexyl}carbonyl)amino]-1H-pyrazole-3-carboxamide] has an IC50 [1] of 200 nM and an IC50 [2, 3] of 149 nM.

In the case of `Cc1cc(NC(=O)C2CCCCC2C(=O)c2ccc(-c3ccn[nH]3)cc2)on1` (racemic) [Example 44, (1R,2R and 1S,2S)—N-(3-Methyl-1,2-oxazol-5-yl)-2-[4-(1H-pyrazol-5-yl)benzoyl]cyclohexanecarboxamide], the IC50 [1] is reported as 46 nM and the IC50 [2, 3] is reported as 197 nM.

Molecule `Cc1coc(NC(=O)C2CCCCC2C(=O)c2ccc(-c3ccn[nH]3)cc2)n1` (racemic) [Example 45, (1R,2R and 1S,2S)—N-(4-Methyl-1,3-oxazol-2-yl)-2-[4-(1H-pyrazol-5-yl)benzoyl]cyclohexanecarboxamide] has an IC50 [1] of 210 nM.

In the case of `Cc1cc(-c2ccc(C(=O)C3CCCCC3C(=O)Nc3cnn(C)c3C#N)cc2)[nH]n1` (racemic) [Example 46, (1R,2R and 1S,2S)—N-(5-Cyano-1-methyl-1H-pyrazol-4-yl)-2-[4-(3-methyl-1H-pyrazol-5-yl)benzoyl]cyclohexanecarboxamide], the IC50 [1] is reported as 86 nM and the IC50 [2, 3] is reported as 170 nM.

Molecule `O=C(Nc1nc(C2CC2)ns1)C1CCCCC1C(=O)c1ccc(-c2ccn[nH]2)cc1` (racemic) [Example 47, (1R,2R and 1S,2S)—N-(3-Cyclopropyl-1,2,4-thiadiazol-5-yl)-2-[4-(1H-pyrazol-5-yl)benzoyl]cyclohexanecarboxamide] has an IC50 [1] of 53 nM and an IC50 [2, 3] of 260 nM.

Work on `Cc1cc(NC(=O)C2CCCCC2C(=O)c2ccc(-c3ccn[nH]3)cc2)sn1` (racemic) [Example 48, (1R,2R and 1S,2S)—N-(3-Methyl-1,2-thiazol-5-yl)-2-[4-(1H-pyrazol-5-yl)benzoyl]cyclohexanecarboxamide] yielded an IC50 [1] of 23 nM and an IC50 [2, 3] of 270 nM.

Work on `Cc1nsc(NC(=O)C2CCCCC2C(=O)c2ccc(-c3ccn[nH]3)cc2)c1C#N` (racemic) [Example 49, (1R,2R and 1S,1S)—N-(4-Cyano-3-methyl-1,2-thiazol-5-yl)-2-[4-(1H-pyrazol-5-yl)benzoyl]cyclohexanecarboxamide] yielded an IC50 [1] of 44 nM and an IC50 [2, 3] of 640 nM.

`Cn1cc(NC(=O)C2CCCCC2C(=O)c2ccc(-c3cc[nH]n3)cc2)c(C(N)=O)n1` (single isomer, unassigned) [Example 1, 1-Methyl-4-[({(1R,2R or 1S,2S)-2-[4-(1H-pyrazol-3-yl)benzoyl]-cyclohexyl}carbonyl)amino]-1H-pyrazole-3-carboxamide] was tested, and the IC50 [1] was 73 nM and the IC50 [2, 3] was 112 nM.

`Cc1cc(-c2ccc(C(=O)C3CCCCC3C(=O)Nc3cn(C)nc3C#N)cc2)[nH]n1` (single isomer, unassigned) [Example 5b, (1R,2R or 1S,2S)—N-(3-Cyano-1-methyl-1H-pyrazol-4-yl)-2-[4-(3-methyl-1H-pyrazol-5-yl)benzoyl]cyclohexanecarboxamide] was tested, and the IC50 [2, 4] was 95 nM.

`Cn1cc(NC(=O)C2CCCCC2C(=O)c2ccc(-c3cc[nH]n3)cc2)c(C#N)n1` (single isomer, unassigned) [Example 12, (1R,2R or 1S,2S)—N-(3-Cyano-1-methyl-1H-pyrazol-4-yl)-2-[4-(1H-pyrazol-3-yl)benzoyl]cyclohexanecarboxamide] showed an IC50 [1] of 41 nM and an IC50 [2, 4] of 100 nM.

With `Cn1ncc(NC(=O)C2CCCCC2C(=O)c2ccc(-c3cc[nH]n3)cc2)c1C#N` (single isomer, unassigned) [Example 18a, (1R,2R or 1S,2S)—N-(5-Cyano-1-methyl-1H-pyrazol-4-yl)-2-[4-(1H-pyrazol-3-yl)benzoyl]cyclohexanecarboxamide] the IC50 [1] was 3700 nM.

`Cn1ncc(NC(=O)C2CCCCC2C(=O)c2ccc(-c3cc[nH]n3)cc2)c1C#N` (single isomer, unassigned) [Example 18b, (1S,2S or 1R,2R)—N-(5-Cyano-1-methyl-1H-pyrazol-4-yl)-2-[4-(1H-pyrazol-3-yl)benzoyl]cyclohexanecarboxamide] was tested, and the IC50 [1] was 28 nM and the IC50 [2, 4] was 114 nM.

`Cn1ncc(NC(=O)C2CCCCC2C(=O)c2ccc(-c3ccn[nH]3)cc2F)c1C(N)=O` (single isomer, unassigned) [Example 34, 4-[({(1R,2R or 1S,2S)-2-[2-Fluoro-4-(1H-pyrazol-5-yl)benzoyl]-cyclohexyl}carbonyl)amino]-1-methyl-1H-pyrazole-5-carboxamide] showed an IC50 [1] of 41 nM and an IC50 [2, 4] of 41 nM.

With `Cc1cc(-c2ccc(C(=O)C3CCCCC3C(=O)Nc3cn(C)nc3C(N)=O)c(F)c2)[nH]n1` (single isomer, unassigned) [Example 36, 4-[({(1R,2R or 1S,2S)-2-[2-Fluoro-4-(3-methyl-1H-pyrazol-5-yl)benzoyl]-cyclohexyl}carbonyl)amino]-1-methyl-1H-pyrazole-3-carboxamide] the IC50 [2, 4] was 148 nM.

With `Cc1cc(-c2ccc(C(=O)[C@@H]3CCCC[C@H]3C(=O)Nc3cnn(C)c3C(N)=O)cc2)[nH]n1` [Example 3, 1-Methyl-4-[({(1R,2R)-2-[4-(3-methyl-1H-pyrazol-5-yl)benzoyl]cyclohexyl}-carbonyl)amino]-1H-pyrazole-5-carboxamide] the IC50 [2, 4] was 70 nM.

In the case of `Cc1cc(-c2ccc(C(=O)[C@@H]3CCCC[C@H]3C(=O)Nc3cn(C)nc3C(N)=O)cc2)n[nH]1` [Example 4, 1-Methyl-4-[({(1R,2R)-2-[4-(3-methyl-1H-pyrazol-5-yl)benzoyl]-cyclohexyl}carbonyl)amino]-1H-pyrazole-3-carboxamide], the IC50 [2, 4] is reported as 290 nM.

In the case of `Cn1cc(NC(=O)[C@@H]2CCCC[C@H]2C(=O)c2ccc(-c3ccn[nH]3)cc2)c(OC(F)F)n1` [Example 9, (1R,2R)—N-[3-(Difluoromethoxy)-1-methyl-1H-pyrazol-4-yl]-2-[4-(1H-pyrazol-5-yl)benzoyl]cyclohexanecarboxamide], the IC50 [2, 4] is reported as 110 nM.

`Cc1cc(-c2ccc(C(=O)[C@@H]3CCCC[C@H]3C(=O)Nc3cnn(C)c3S(N)(=O)=O)cc2)[nH]n1` [Example 13, (1R,2R)-2-[4-(3-Methyl-1H-pyrazol-5-yl)benzoyl]-N-(1-methyl-5-sulfamoyl-1H-pyrazol-4-yl)cyclohexanecarboxamide] gave an IC50 [2, 4] of 260 nM.

`CNC(=O)c1nn(C)cc1NC(=O)C1CCCCC1C(=O)c1ccc(-c2cc[nH]n2)cc1` [Example 20, N,1-Dimethyl-4-[({(1R,2R and 1S,2S)-2-[4-(1H-pyrazol-3-yl)benzoyl]-cyclohexyl}carbonyl)amino]-1H-pyrazole-3-carboxamide] gave an IC50 [2, 3] of 281 nM.

`Cn1nnc(NC(=O)C2CCCCC2C(=O)c2ccc(-c3ccn[nH]3)cc2)c1C1CC1` [Example 33, (1R,2R and 1S,2S)—N-(5-Cyclopropyl-1-methyl-1H-1,2,3-triazol-4-yl)-2-[4-(1H-pyrazol-5-yl)benzoyl]cyclohexanecarboxamide] showed an IC50 [2, 4] of 117 nM.
